Assay results: patent US4517002A (priority 1983, dated 1985)

How the values were obtained:
urease [1] = format: biochemical; conditions: pH 7.2
urease [2] = format: biochemical; conditions: pH 5.4

| SMILES | % Inhibition Cazenovia Soil (urease [1]) | % Inhibition Wisconsin Soil (urease [2]) |
| --- | --- | --- |
| NP(N)(=O)OCCCl [Experiment 4] | 84% | – |
| CCCOP(N)(N)=O [Experiment 10] | 15% | – |
| COP(N)(N)=O [Experiment 9] | 34% | – |
| NP(N)(=O)OCCBr [Experiment 3] | 85% | – |
| NP(N)(=O)OC1C(Cl)(Cl)CCCC1(Cl)Cl [Experiment 12] | 38% | – |
| NP(N)(=O)OCc1ccccc1 [Experiment 7] | 69% | 20% |
| NP(N)(=O)OCC(F)(F)F [Experiment 1] | 97% | 90% |
| NP(N)(=O)OC1CCCCC1 [Experiment 11] | 85% | – |
| NP(N)(=O)OCC(Cl)(Cl)Cl [Experiment 2] | 97% | 87% |
| NP(N)(=O)OCCCCl [Experiment 8] | 41% | 22% |
| C=CCOP(N)(N)=O [Experiment 6] | 65% | 38% |
